Measurements from patent US20240279215A1 (Cytokinetics, Incorporated, priority 2022, published 2024).
Structures can show the parent of a compound that is named as a salt.

What follows are compounds tested against human NAMPT (Homo sapiens (Human), UniProt P43490) (assay: NMN fluorescence biochemical assay (human recombinant NAMPT enzyme assay)).
Chain of human NAMPT (P43490 whole entry): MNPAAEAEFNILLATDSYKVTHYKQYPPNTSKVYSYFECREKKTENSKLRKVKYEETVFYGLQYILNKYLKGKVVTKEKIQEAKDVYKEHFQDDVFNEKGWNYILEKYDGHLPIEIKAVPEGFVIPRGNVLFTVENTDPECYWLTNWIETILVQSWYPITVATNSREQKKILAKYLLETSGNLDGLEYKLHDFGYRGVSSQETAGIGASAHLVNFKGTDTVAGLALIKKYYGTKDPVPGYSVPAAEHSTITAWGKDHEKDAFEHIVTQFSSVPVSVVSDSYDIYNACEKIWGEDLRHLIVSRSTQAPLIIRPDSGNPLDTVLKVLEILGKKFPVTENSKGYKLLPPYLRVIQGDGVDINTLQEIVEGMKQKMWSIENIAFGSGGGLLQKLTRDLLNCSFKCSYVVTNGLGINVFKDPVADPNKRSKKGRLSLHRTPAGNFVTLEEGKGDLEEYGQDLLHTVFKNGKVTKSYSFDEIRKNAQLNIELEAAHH
Method in brief: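 NMN formed was detected by fluorescence (Ex/Em 355/460 nm) after acetophenone, KOH and formic acid derivatization. The cell-free reaction ran 60 min at ambient temperature with 6 nM human NAMPT, 150 μM nicotinamide, 20 μM PRPP, 2.5 mM ATP, pH 7.2 HEPES, and compound dose responses.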
For `O=C(Nc1ccc(CN2CCOC2=O)cc1)OCc1ccc(Cl)cc1` [Compound 242, (4-chlorophenyl)methyl N-{4-[(2-oxo-1,3-oxazolidin-3-yl)methyl]phenyl}carbamate], the “AC1.4 Human” value was 2.38 µM and the EC50 was 19.8 µM. In the case of `Cc1coc(C(=O)N[C@@H](C)c2ccc(NC(=O)OCc3ccc(Cl)cc3)cc2)n1` [Compound 243, 4-chlorobenzyl (S)-(4-(1-(4-methyloxazole-2-carboxamido)ethyl)phenyl)carbamate], the “AC1.4 Human” value is reported as 2.38 µM and the EC50 is reported as 26.3 µM. `C[C@H]1CCN(C(=O)Cc2ccc(NC(=O)OCc3ccc(Cl)cc3)cc2)C1` [Compound 244, (4-chlorophenyl)methyl N-(4-{2-[(3S)-3-methylpyrrolidin-1-yl]-2-oxoethyl}phenyl)carbamate] was tested, and the “AC1.4 Human” value was 2.39 µM and the EC50 was 5.67 µM. For `COc1nc(C)ccc1C(=O)NCc1ccc(NC(=O)OCc2ccc(Cl)cc2)cc1` [Compound 245, (4-chlorophenyl)methyl N-(4-{[(2-methoxy-6-methylpyridin-3-yl)formamido]methyl}phenyl)carbamate], the “AC1.4 Human” value was 2.39 µM and the EC50 was 6.35 µM. For `C[C@H](NC(=O)c1cnco1)c1ccc(NC(=O)OCc2ccc(Cl)cc2)cc1` [Compound 246, 4-chlorobenzyl (S)-(4-(1-(oxazole-5-carboxamido)ethyl)phenyl)carbamate], the “AC1.4 Human” value was 2.43 µM and the EC50 was 6.14 µM. `CC(O)(c1ccncc1)c1ccc(NC(=O)OCc2ccc(Cl)cc2)cc1` (stereo not drawn) [Compound 247, 4-chlorobenzyl (4-(1-hydroxy-1-(pyridin-4-yl)ethyl)phenyl)carbamate] was tested, and the “AC1.4 Human” value was 2.45 µM and the EC50 was 16.5 µM. For `O=C(Nc1ccc(CNC(=O)c2cccnn2)cc1)OCc1ccc(Cl)cc1` [Compound 248, (4-chlorophenyl)methyl N-{4-[(pyridazin-3-ylformamido)methyl]phenyl}carbamate], the “AC1.4 Human” value was 2.51 µM and the EC50 was 2.4 µM. With `CN(Cc1ccc(NC(=O)OCc2ccc(Cl)cc2)cc1)C(=O)c1cncc(F)c1` [Compound 250, (4-chlorophenyl)methyl N-(4-{[1-(5-fluoropyridin-3-yl)-N-methylformamido]methyl}phenyl)carbamate] the “AC1.4 Human” value was 2.58 µM and the EC50 was 21.3 µM. In the case of `Cc1nocc1C(=O)NCc1ccc(NC(=O)OCc2ccc(Cl)cc2)cc1` [Compound 251, (4-chlorophenyl)methyl N-(4-{[(3-methyl-1,2-oxazol-4-yl)formamido]methyl}phenyl)carbamate], the “AC1.4 Human” value is reported as 2.59 µM and the EC50 is reported as 11 µM. In the case of `O=C(Nc1ccc(CCC2CCNCC2)cc1)OCc1cnco1` [Compound 252, oxazol-5-ylmethyl (4-(2-(piperidin-4-yl)ethyl)phenyl)carbamate hydrochloride], the “AC1.4 Human” value is reported as 2.60 µM and the EC50 is reported as 26.2 µM. In the case of `COc1cnn(C)c1C(=O)N(C)Cc1ccc(NC(=O)OCc2ccc(Cl)cc2)cc1` [Compound 253, (4-chlorophenyl)methyl N-(4-{[1-(4-methoxy-2-methylpyrazol-3-yl)-N-methylformamido]methyl}phenyl)carbamate], the “AC1.4 Human” value is reported as 2.62 µM and the EC50 is reported as 17.9 µM. `Cn1ccc(C(=O)NCc2ccc(NC(=O)OCc3ccc(Cl)cc3)cc2)c1` [Compound 254, (4-chlorophenyl)methyl N-(4-{[(1-methylpyrrol-3-yl)formamido]methyl}phenyl)carbamate] was tested, and the “AC1.4 Human” value was 2.64 µM and the EC50 was 15.1 µM. For `Cn1ccc(C(=O)NCc2ccc(NC(=O)OCc3ccc(Cl)cc3)cc2)n1` [Compound 255, (4-chlorophenyl)methyl N-(4-{[(1-methylpyrazol-3-yl)formamido]methyl}phenyl)carbamate], the “AC1.4 Human” value was 2.65 µM and the EC50 was 31.7 µM. With `C[C@@H]1CCCN(C(=O)Cc2ccc(NC(=O)OCc3ccc(Cl)cc3)cc2)C1` [Compound 256, (4-chlorophenyl)methyl N-(4-{2-[(3R)-3-methylpiperidin-1-yl]-2-oxoethyl}phenyl)carbamate] the “AC1.4 Human” value was 2.69 µM and the EC50 was 10.5 µM. For `O=C(Nc1ccc(CC(=O)N2CCCC[C@H]2CO)cc1)OCc1ccc(Cl)cc1` [Compound 257, (4-chlorophenyl)methyl N-(4-{2-[(2S)-2-(hydroxymethyl)piperidin-1-yl]-2-oxoethyl}phenyl)carbamate], the “AC1.4 Human” value was 2.70 µM and the EC50 was 31.2 µM. `O=C(Nc1ccc(CNC(=O)N2CCN(CC(F)F)CC2)cc1)OCc1ccc(Cl)cc1` [Compound 258, (4-chlorophenyl)methyl N-(4-{[4-(2,2-difluoroethyl)piperazine-1-carbonylamino]methyl}phenyl)carbamate] was tested, and the “AC1.4 Human” value was 2.74 µM and the EC50 was 7.62 µM. For `C[C@H](NC(=O)c1cc(C(F)F)nn1C)c1ccc(NC(=O)OCc2ccc(Cl)cc2)cc1` [Compound 259], the “AC1.4 Human” value was 2.75 µM and the EC50 was 13.9 µM. For `CCc1ncoc1C(=O)N[C@@H](C)c1ccc(NC(=O)OCc2ccc(Cl)cc2)cc1` [Compound 260, (4-chlorophenyl)methyl N-{4-[(1S)-1-[(4-ethyl-1,3-oxazol-5-yl)formamido]ethyl]phenyl}carbamate], the “AC1.4 Human” value was 2.77 µM and the EC50 was 14.5 µM. In the case of `C[C@H]1CCCN(C(=O)Cc2ccc(NC(=O)OCc3ccc(Cl)cc3)cc2)C1` [Compound 261, (4-chlorophenyl)methyl N-(4-{2-[(3S)-3-methylpiperidin-1-yl]-2-oxoethyl}phenyl)carbamate], the “AC1.4 Human” value is reported as 2.83 µM and the EC50 is reported as 9.46 µM. `COc1ccc(COC(=O)Nc2ccc(Cc3ccncc3)cc2)cc1` [Compound 262, 4-methoxybenzyl (4-(pyridin-4-ylmethyl)phenyl)carbamate] was tested, and the “AC1.4 Human” value was 2.83 µM and the EC50 was 11.9 µM. For `COc1ccc(COC(=O)Nc2ccc([C@H]3CNC(=O)CN3C)cc2)cc1` [Compound 263, 4-methoxybenzyl (S)-(4-(1-methyl-5-oxopiperazin-2-yl)phenyl)carbamate], the “AC1.4 Human” value was 2.92 µM and the EC50 was 39.1 µM. With `Cc1ccc(N(C)C(=O)Cc2ccc(NC(=O)OCc3ccc(Cl)cc3)cc2)cn1` [Compound 264, (4-chlorophenyl)methyl N-(4-{[methyl(6-methylpyridin-3-yl)carbamoyl]methyl}phenyl)carbamate] the “AC1.4 Human” value was 2.93 µM and the EC50 was 19.7 µM. With `O=C(Nc1ccc(CNC(=O)N2CCC2)cc1)OCc1ccc(Cl)cc1` [Compound 265, (4-chlorophenyl)methyl N-{4-[(azetidine-1-carbonylamino)methyl]phenyl}carbamate] the “AC1.4 Human” value was 2.94 µM and the EC50 was 23.2 µM. For `C[C@H](NC(=O)C1CC1)c1ccc(NC(=O)OCc2cnco2)cc1` [Compound 266, 1,3-oxazol-5-ylmethyl N-{4-[(1S)-1-(cyclopropylformamido)ethyl]phenyl}carbamate], the “AC1.4 Human” value was 2.98 µM and the EC50 was 14.9 µM. In the case of `Cc1cnc(C(=O)N[C@@H](C)c2ccc(NC(=O)OCc3ccc(Cl)cc3)cc2)o1` [Compound 267, 4-chlorobenzyl (S)-(4-(1-(5-methyloxazole-2-carboxamido)ethyl)phenyl)carbamate], the “AC1.4 Human” value is reported as 3.04 µM and the EC50 is reported as 36.5 µM. For `Cc1cnoc1C(=O)NCc1ccc(NC(=O)OCc2ccc(Cl)cc2)cc1` [Compound 268, (4-chlorophenyl)methyl N-(4-{[(4-methyl-1,2-oxazol-5-yl)formamido]methyl}phenyl)carbamate], the “AC1.4 Human” value was 3.05 µM and the EC50 was 13.8 µM. `O=C(Nc1ccc(CCN2CCN(C3COC3)CC2)cc1)OCc1cnco1` [Compound 269, 1,3-oxazol-5-ylmethyl N-(4-{2-[4-(oxetan-3-yl)piperazin-1-yl]ethyl}phenyl)carbamate] was tested, and the “AC1.4 Human” value was 3.13 µM and the EC50 was 44.1 µM. In the case of `O=C(Nc1ccc(CNC(=O)N2CCOCC2)cc1)OCc1ccc(Cl)cc1` [Compound 270, (4-chlorophenyl)methyl N-{4-[(morpholine-4-carbonylamino)methyl]phenyl}carbamate], the “AC1.4 Human” value is reported as 3.14 µM and the EC50 is reported as 47.2 µM. With `O=C(Nc1ccc(CNC(=O)c2cncc(F)c2)cc1)OCc1ccc(Cl)cc1` [Compound 271, (4-chlorophenyl)methyl N-(4-{[(5-fluoropyridin-3-yl)formamido]methyl}phenyl)] the “AC1.4 Human” value was 3.15 µM and the EC50 was 4.8 µM. In the case of `O=C(Nc1ccc(CNC(=O)c2ccccn2)cc1)OCc1ccc(Cl)cc1` [Compound 272, (4-chlorophenyl)methyl N-{4-[(pyridin-2-ylformamido)methyl]phenyl}carbamate], the “AC1.4 Human” value is reported as 3.18 µM and the EC50 is reported as 10.9 µM. `O=C(Cc1ccc(NC(=O)OCc2ccc(Cl)cc2)cc1)Nc1cncc(F)c1` [Compound 273, (4-chlorophenyl)methyl N-(4-{[(5-fluoropyridin-3-yl)carbamoyl]methyl}phenyl)carbamate] was tested, and the “AC1.4 Human” value was 3.21 µM and the EC50 was 14.4 µM. For `O=C(Nc1ccc(CC(=O)N2CCC(F)(F)CC2)cc1)OCc1ccc(Cl)cc1` [Compound 274, (4-chlorophenyl)methyl N-{4-[2-(4,4-difluoropiperidin-1-yl)-2-oxoethyl]phenyl}carbamate], the “AC1.4 Human” value was 3.32 µM and the EC50 was 6.15 µM. `Cc1ccc(C(=O)NCc2ccc(NC(=O)OCc3ccc(OC(F)F)cc3)cc2)cn1` [Compound 275, (4-(difluoro-13-methyl)phenyl)methyl (4-((6-methylnicotinamido)methyl)phenyl)carbamate] was tested, and the “AC1.4 Human” value was 3.32 µM and the EC50 was 12.6 µM. For `Cc1coc(C(=O)NCc2ccc(NC(=O)OCc3ccc(Cl)cc3)cc2)n1` [Compound 276, (4-chlorophenyl)methyl N-(4-{[(4-methyl-1,3-oxazol-2-yl)formamido]methyl}phenyl)carbamate], the “AC1.4 Human” value was 3.32 µM and the EC50 was 18.3 µM. For `CN1CC(C(=O)NCc2ccc(NC(=O)OCc3ccc(Cl)cc3)cc2)CC1=O` (stereo not drawn) [Compound 277, (4-chlorophenyl)methyl N-(4-{[(1-methyl-5-oxopyrrolidin-3-yl)formamido]methyl}phenyl)carbamate], the “AC1.4 Human” value was 3.36 µM and the EC50 was 39.9 µM. For `CN1CC(=O)NC[C@@H]1c1ccc(NC(=O)OCc2ccc(F)cc2)cc1` [Compound 278, 4-fluorobenzyl (S)-(4-(1-methyl-5-oxopiperazin-2-yl)phenyl)carbamate], the “AC1.4 Human” value was 3.40 µM and the EC50 was 17.4 µM.
